In ChEMBL document CHEMBL2034889, “The design and synthesis of novel, potent and orally bioavailable N-aryl piperazine-1-carboxamide CCR2 antagonists with very high hERG selectivity” (Bioorg Med Chem Lett, 2012):
Active and inactive are the calls of the source. The rule behind the calls is not given here.

Assays:
[1] = Clearance in dog at 4 umol/kg, iv; format: ADME, organism-based, Canis lupus familiaris; conditions: in vivo
[2] = target: C-C chemokine receptor type 5 (Homo sapiens, UniProt P51681); experiment: Inhibition of human CCR5 by FLIPR analysis
[3] = target: T1, C-C chemokine receptor type 2 (Homo sapiens, UniProt P41597); experiment: Displacement of 125I-MCP1 from human CCR2 receptor expressed in human THP-1 cell membrane by SPA assay; format: cell membranes
[4] = target: T1, C-C chemokine receptor type 2; experiment: Antagonist activity at human CCR2 receptor expressed in human THP-1 cells assessed as inhibition of MCP1-induced Ca2+ flux by FLIPR analysis; format: functional, cell-based
[5] = target: T1, C-C chemokine receptor type 2; experiment: Antagonist activity at human CCR2 in human peripheral whole blood assessed as inhibition of MCP1-induced L-selectin shedding; format: functional, tissue-based; conditions: read-out: pA2 (converted)
[6] = Intrinsic clearance in human hepatocytes assessed per 10^6 cells; format: ADME, cell-based, Hepatocyte; conditions: read-out: CLH
[7] = Dissociation constant, pKa of the compound; format: physicochemical
[8] = Antagonist activity at dog CCR2 receptor expressed in human THP-1 cells assessed as inhibition of MCP1-induced Ca2+ flux by FLIPR analysis; format: functional, cell-based
[9] = Lipophilicity, log P of the compound at pH 7.4; format: physicochemical; conditions: buffer
[10] = target: C-C chemokine receptor type 2 (Mus musculus, UniProt P51683); experiment: Antagonist activity at mouse CCR2 receptor expressed in human THP-1 cells assessed as inhibition of MCP1-induced Ca2+ flux by FLIPR analysis; format: functional, cell-based
[11] = Half life in dog at 4 umol/kg, iv; format: ADME, organism-based, Canis lupus familiaris; conditions: in vivo
[12] = Intrinsic clearance in rat hepatocytes assessed per 10^6 cells; format: ADME, cell-based, Hepatocyte; conditions: read-out: CLH
[13] = target: C-X-C chemokine receptor type 4 (Homo sapiens) (UniProt P61073); experiment: Inhibition of human CXCR4 by FLIPR analysis
[14] = Volume of distribution at steady state in dog at 4 umol/kg, iv; format: ADME, organism-based, Canis lupus familiaris; conditions: in vivo, read-out: Vdss
[15] = target: T2, C-X-C chemokine receptor type 5 (Homo sapiens) (UniProt P32302); experiment: Inhibition of human CXCR5 by FLIPR analysis
T2 sequence (whole entry): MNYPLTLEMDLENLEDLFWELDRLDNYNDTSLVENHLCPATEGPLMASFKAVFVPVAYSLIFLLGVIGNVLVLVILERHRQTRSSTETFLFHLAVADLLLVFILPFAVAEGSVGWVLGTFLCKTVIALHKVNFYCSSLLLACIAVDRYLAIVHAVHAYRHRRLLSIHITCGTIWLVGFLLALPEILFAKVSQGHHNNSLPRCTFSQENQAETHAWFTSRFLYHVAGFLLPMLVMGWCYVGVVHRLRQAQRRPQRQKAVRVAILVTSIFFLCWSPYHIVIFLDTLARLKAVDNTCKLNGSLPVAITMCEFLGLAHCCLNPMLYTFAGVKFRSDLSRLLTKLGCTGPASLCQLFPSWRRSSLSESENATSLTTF

[16] = target: T3, Voltage-gated inwardly rectifying potassium channel KCNH2 (Homo sapiens, UniProt Q12809)
[17] = target: T4, C-C chemokine receptor type 1 (Homo sapiens) (UniProt P32246); experiment: Inhibition of human CCR1 by FLIPR analysis
T4 sequence (whole entry): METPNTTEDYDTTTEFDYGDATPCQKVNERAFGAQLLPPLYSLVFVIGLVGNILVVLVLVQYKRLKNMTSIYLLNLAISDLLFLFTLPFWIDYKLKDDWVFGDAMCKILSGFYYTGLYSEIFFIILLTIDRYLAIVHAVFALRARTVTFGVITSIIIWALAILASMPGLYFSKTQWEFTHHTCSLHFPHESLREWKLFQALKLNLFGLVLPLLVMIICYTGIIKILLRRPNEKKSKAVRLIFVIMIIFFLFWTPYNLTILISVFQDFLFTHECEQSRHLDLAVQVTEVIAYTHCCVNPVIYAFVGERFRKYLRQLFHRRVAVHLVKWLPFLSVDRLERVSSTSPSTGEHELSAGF

[18] = Lipophilicity, log D of the compound at pH 7.4; format: physicochemical; conditions: buffer
[19] = Clearance in rat at 4 umol/kg, iv; format: ADME, organism-based; conditions: in vivo
[20] = target: T3, Voltage-gated inwardly rectifying potassium channel KCNH2; experiment: Inhibition of human ERG by electrophysiology assay
[21] = Oral bioavailability in rat at 11 umol/kg; format: ADME, organism-based; conditions: in vivo
[22] = Intrinsic clearance in dog hepatocytes assessed per 10^6 cells; format: ADME, cell-based, Canis lupus familiaris, Hepatocyte; conditions: read-out: CLH
[23] = Oral bioavailability in dog at 4 umol/kg; format: ADME, organism-based, Canis lupus familiaris; conditions: in vivo
[24] = Aqueous solubility of the compound; format: physicochemical; conditions: buffer
[25] = target: T5, C-C chemokine receptor type 2 (Rattus norvegicus, UniProt O55193); experiment: Antagonist activity at rat CCR2 receptor expressed in human THP-1 cells assessed as inhibition of MCP1-induced Ca2+ flux by FLIPR analysis; format: functional, cell-based
T5 sequence (O55193 whole entry): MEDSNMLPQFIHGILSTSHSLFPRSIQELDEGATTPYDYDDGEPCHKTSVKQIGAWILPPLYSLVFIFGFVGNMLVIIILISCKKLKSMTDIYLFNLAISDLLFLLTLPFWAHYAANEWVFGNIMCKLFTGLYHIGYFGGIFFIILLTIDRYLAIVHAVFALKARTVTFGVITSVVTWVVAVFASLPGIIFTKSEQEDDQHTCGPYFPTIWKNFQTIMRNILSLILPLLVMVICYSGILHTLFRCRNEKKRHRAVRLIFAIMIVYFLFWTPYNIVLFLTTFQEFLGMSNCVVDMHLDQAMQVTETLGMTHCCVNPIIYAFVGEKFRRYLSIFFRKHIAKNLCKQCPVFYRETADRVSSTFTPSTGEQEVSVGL

[26] = Half life in rat at 4 umol/kg, iv; format: ADME, organism-based; conditions: in vivo
[27] = Volume of distribution at steady state in rat at 4 umol/kg, iv; format: ADME, organism-based; conditions: in vivo, read-out: Vdss
[28] = target: C-C chemokine receptor type 8 (Homo sapiens) (UniProt P51685); experiment: Inhibition of human CCR8 by FLIPR analysis
C-C chemokine receptor type 8 (Homo sapiens), sequence (P51685 whole entry): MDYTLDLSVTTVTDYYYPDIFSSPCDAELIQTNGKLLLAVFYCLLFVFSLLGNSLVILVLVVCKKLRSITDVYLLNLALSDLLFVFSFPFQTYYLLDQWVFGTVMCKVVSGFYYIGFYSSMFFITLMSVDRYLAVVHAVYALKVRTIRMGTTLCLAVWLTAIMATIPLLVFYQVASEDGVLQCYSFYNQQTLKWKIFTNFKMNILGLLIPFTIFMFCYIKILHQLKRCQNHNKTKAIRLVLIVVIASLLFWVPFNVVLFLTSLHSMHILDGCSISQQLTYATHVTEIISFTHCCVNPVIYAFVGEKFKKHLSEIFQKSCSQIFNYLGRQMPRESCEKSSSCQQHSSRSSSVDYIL

T1 sequence (P41597 whole entry): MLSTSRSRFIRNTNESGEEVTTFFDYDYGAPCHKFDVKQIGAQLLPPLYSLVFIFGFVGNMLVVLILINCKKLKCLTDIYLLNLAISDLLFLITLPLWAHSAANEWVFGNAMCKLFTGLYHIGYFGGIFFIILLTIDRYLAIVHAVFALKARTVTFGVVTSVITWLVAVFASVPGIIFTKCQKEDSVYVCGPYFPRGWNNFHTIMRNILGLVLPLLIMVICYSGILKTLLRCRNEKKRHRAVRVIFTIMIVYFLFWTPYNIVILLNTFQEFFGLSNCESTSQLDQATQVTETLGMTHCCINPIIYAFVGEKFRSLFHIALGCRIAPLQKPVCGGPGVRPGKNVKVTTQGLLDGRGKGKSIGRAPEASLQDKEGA
T3 sequence (Q12809 whole entry): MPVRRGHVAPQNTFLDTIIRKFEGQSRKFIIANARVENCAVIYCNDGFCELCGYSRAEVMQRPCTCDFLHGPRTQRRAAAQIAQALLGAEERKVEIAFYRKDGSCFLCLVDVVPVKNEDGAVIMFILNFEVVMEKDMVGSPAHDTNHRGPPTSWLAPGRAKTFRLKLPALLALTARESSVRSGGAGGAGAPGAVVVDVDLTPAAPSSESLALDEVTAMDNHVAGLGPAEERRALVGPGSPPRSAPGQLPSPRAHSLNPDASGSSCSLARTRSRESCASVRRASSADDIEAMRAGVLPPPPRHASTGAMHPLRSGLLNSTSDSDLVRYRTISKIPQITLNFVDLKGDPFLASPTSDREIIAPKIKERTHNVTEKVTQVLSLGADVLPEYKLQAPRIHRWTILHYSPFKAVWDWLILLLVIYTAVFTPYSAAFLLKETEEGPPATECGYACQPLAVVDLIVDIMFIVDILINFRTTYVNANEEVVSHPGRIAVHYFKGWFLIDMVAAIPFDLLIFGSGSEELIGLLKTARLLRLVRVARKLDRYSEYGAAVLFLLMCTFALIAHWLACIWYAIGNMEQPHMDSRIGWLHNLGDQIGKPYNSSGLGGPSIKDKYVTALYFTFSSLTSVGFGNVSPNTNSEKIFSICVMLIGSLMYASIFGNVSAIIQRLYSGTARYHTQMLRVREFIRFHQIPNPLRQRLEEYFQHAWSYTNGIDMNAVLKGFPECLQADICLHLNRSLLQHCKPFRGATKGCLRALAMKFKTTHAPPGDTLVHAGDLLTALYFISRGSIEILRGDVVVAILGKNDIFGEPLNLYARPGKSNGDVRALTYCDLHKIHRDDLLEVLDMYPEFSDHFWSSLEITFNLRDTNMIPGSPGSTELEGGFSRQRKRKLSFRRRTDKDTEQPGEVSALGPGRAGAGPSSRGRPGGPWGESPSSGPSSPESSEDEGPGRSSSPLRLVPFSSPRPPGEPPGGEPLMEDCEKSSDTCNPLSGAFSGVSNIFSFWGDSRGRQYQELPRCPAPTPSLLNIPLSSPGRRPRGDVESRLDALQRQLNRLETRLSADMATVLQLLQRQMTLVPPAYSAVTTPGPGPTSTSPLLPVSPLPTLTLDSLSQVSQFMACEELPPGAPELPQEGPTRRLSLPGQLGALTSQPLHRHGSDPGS
C-C chemokine receptor type 2 (Mus musculus, UniProt P51683), sequence (P51683 whole entry): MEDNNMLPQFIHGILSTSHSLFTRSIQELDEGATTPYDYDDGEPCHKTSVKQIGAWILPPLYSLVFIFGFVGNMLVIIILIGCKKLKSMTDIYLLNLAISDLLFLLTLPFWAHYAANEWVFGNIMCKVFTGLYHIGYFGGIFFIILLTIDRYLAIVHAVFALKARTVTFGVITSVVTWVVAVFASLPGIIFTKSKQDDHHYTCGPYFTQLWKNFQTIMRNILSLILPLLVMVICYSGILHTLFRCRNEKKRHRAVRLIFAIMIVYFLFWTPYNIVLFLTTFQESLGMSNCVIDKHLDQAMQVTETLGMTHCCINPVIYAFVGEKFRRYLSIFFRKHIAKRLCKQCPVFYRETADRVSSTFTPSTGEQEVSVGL
C-X-C chemokine receptor type 4 (Homo sapiens), sequence (P61073 whole entry): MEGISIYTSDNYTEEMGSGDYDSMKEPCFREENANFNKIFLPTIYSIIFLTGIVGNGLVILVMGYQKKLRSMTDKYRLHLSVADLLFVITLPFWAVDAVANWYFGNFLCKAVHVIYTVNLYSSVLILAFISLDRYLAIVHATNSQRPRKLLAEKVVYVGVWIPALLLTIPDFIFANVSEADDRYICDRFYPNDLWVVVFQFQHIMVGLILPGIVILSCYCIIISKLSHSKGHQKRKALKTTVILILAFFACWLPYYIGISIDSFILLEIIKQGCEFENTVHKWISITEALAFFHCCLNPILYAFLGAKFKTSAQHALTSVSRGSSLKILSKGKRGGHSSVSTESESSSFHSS
C-C chemokine receptor type 5, sequence (P51681 whole entry): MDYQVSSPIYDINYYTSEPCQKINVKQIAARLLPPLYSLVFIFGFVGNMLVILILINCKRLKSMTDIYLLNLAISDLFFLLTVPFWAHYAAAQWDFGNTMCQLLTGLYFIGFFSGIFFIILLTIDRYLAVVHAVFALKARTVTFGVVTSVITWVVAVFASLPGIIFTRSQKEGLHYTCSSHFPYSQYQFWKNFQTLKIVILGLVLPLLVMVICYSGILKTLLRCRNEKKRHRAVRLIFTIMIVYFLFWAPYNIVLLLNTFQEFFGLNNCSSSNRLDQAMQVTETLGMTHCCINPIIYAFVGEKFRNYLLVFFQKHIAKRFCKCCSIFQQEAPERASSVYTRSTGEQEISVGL

CC(C)N1CCN[C@@H](C(=O)N2CCN(C(=O)Nc3ccc(Cl)c(Cl)c3)CC2)C1
clearance [1]: 17 mL/min/kg | IC50 [2]: 22 nM | IC50 [3]: 3.5 nM | IC50 [4]: 5.8 nM | Kb [5]: 3.47 nM | hepatocyte CLint [6]: < 2 µL/min/1e6 cells | pKa [7]: 7.8 | IC50 [8]: 1600 nM | logD [9]: 2.7 | IC50 [10]: 1200 nM | half-life [11]: 9.1 h | hepatocyte CLint [12]: < 2 µL/min/1e6 cells | inhibition [13]: inactive | Vd [14]: 8.5 L/kg | inhibition [15]: inactive | IC50 [16]: 17000 nM | inhibition [17]: inactive | logD [18]: 2.21 | clearance [19]: 30 mL/min/kg | IC50 [20]: 60000 nM | bioavailability [21]: 11% | hepatocyte CLint [22]: < 2 µL/min/1e6 cells | bioavailability [23]: 83% | solubility [24]: > 3.1 mM | IC50 [25]: 200 nM | half-life [26]: 3 h | Vd [27]: 4 L/kg | inhibition [28]: inactive
